Results published in patent US10550100B2, “5-[3-[piperzin-1-yl]-3-oxo-propyl]-imidazolidine-2,4-dione derivatives as ADAMTS 4 and 5 inhibitors for treating E.G. osteoarthritis” (GALAPAGOS NV, priority 2016, dated 2020).
Read-outs that look alike come from different tables or passages of the source.

Assays:
Assay type in all cases: biochemical
[1] = target: human ADAMTS-5 (Homo sapiens (Human), UniProt Q9UNA0); assay: hADAMTS-5 TBIS-1 cleavage assay, Protocol 3; settings: Protocol 3, TBIS-1 substrate, 90 min at 37° C.; read-out: hADAMTS-5 potency IC50
Sequence of human ADAMTS-5 (Q9UNA0 262-930): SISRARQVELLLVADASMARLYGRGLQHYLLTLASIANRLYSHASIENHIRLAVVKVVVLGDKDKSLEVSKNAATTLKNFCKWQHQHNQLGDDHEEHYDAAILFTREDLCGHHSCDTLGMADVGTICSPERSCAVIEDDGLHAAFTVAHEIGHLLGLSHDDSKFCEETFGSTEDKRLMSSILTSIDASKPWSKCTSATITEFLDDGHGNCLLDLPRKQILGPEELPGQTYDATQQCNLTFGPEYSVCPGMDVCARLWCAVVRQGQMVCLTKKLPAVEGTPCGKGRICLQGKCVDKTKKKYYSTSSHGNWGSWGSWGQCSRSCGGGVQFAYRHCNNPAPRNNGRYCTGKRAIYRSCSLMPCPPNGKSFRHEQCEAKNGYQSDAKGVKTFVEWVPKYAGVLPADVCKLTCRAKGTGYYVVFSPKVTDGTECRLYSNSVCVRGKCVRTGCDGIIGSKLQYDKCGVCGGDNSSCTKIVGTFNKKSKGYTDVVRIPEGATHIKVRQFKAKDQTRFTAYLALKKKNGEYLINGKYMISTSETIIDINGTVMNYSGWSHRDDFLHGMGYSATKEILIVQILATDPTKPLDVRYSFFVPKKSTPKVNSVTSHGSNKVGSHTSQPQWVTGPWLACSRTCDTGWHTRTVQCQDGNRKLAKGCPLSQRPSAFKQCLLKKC
Description: The reaction is initiated by adding to the assay plate TBIS-1 (10 μL, 4.5 μM, Anaspec) in the same buffer.
Finally, the fluorescence is read on the Envision (Perkin Elmer) after an incubation of 90 min at 37° C. (Excitation 485 nm, emission 530).

[2] = target: T1, human MMP13 (Homo sapiens (Human), UniProt P45452); assay: hMMP13 390 MMP FRET Substrate I cleavage assay, Protocol 2; settings: Protocol 2, 390 MMP FRET Substrate I; read-out: hMMP-13 potency IC50
Description: (§1) The basis for the assay is the cleavage of the substrate 390 MMP FRET Substrate I (Anaspec Cat# AS-27076) by human MMP13 (Chemicon, Cat#CC068).
(§2) Human MMP13 is preactivated by incubated the enzyme in the same buffer complemented with 1 mM freshly prepared p-Aminophenylmercuric acetate (AMPA) for 1 h at 37° C.
(§3) The reaction is initiated by adding to the assay plate 390 MMP FRET Substrate I (10 μL, 2.5 μM) in the same buffer.
(§4) Finally, the fluorescence is read on the Envision (Perkin Elmer) after an incubation of 45 min at room temperature (Excitation 485 nm, Emission 530).

[3] = target: T1, human MMP13; assay: hMMP13 390 MMP FRET Substrate I cleavage assay, Protocol 1; settings: Protocol 1, 390 MMP FRET Substrate I; read-out: hMMP-13 potency IC50
Description: as §1, §2, §3, §4

[4] = target: human TACE (Homo sapiens (Human), UniProt P78536); assay: hTACE 5FAM-[…]-5TAMRA cleavage assay; settings: 75 min at room temperature, read-out: hTACE potency IC50
Sequence of human TACE (P78536 215-671): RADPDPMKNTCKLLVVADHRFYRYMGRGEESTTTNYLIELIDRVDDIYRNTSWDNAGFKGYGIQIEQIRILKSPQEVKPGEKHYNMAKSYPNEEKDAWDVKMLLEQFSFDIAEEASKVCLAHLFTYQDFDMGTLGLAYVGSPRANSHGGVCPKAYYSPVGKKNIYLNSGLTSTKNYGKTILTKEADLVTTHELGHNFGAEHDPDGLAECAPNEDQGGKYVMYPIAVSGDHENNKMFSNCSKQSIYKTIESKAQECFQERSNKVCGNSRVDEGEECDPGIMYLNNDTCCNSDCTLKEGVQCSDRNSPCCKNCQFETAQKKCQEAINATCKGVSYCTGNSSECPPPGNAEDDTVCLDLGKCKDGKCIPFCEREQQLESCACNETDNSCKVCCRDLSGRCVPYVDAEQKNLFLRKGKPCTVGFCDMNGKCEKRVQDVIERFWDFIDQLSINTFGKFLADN
Description: Finally, the fluorescence is read on the Envision (Perkin Elmer) after an incubation of 75 min at room temperature (Excitation 485 nm, Emission 530).

[5] = target: human ADAMTS6 (Homo sapiens (Human), UniProt Q9UKP5); assay: hADAMTS-6 520 MMP FRET substrate XII cleavage assay; settings: 37° C. for 2 h, read-out: hADAMTS-6 potency IC50
Sequence of human ADAMTS6 (Q9UKP5 other isoform, or with tags, fused parts or gaps): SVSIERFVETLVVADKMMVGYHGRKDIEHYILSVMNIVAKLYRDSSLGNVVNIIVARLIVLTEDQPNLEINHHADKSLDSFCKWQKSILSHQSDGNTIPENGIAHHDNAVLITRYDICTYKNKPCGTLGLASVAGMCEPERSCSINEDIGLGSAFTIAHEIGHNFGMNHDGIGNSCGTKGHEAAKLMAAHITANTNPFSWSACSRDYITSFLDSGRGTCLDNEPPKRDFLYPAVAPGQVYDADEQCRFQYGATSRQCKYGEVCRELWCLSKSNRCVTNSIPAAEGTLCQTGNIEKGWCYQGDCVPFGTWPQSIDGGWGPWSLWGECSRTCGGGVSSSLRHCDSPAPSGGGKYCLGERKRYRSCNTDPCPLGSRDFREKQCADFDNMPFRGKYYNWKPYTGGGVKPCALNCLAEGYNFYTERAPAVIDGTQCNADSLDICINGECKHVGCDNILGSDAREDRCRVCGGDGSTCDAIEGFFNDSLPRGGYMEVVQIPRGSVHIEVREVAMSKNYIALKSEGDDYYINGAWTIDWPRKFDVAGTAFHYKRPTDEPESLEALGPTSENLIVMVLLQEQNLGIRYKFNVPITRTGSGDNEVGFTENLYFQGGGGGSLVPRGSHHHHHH
Source text: The IC50 value for test compounds can be determined in a fluorescent based protease assay.
The basis for the assay is the cleavage of the substrate 520 MMP FRET substrate XII by human ADAMTS6.
The substrate contains sequence Arg-Pro-Lys-Pro-Tyr-Ala-Nva-Trp-Met-Lys (SEQ ID NO: 7) with attached a fluorescent probe and a quencher. Without ADAMTS6, the emission of the probe is quenched. If the substrate is cleaved by ADAMTS6, the emission of the probe is not quenched anymore. Inhibition of ADAMTS6 activity, will result in a decrease of the signal.
To perform the assay, 4 μL of a dilution series of compound in water, starting from 20 μM highest concentration, 1/5 dilution, is added to the wells. 2 ng ADAMTS6 enzyme is diluted in 25 mM Tris pH8.0, 0.05% CHAPS, 2.5 mM CaCl2 in a total volume of 26 μL (final concentration 0.73 nM). The reaction is started by addition of 10 μL of 1 μM 520 MMP FRET Substrate XII (final concentration, diluted in same buffer as described above) and the mixture is incubated at 37° C. for 2 h. […] After this incubation, cleavage of the substrate is measured using the Envision (Perkin Elmer, exc485/em530).

[6] = target: human MMP14 (Homo sapiens (Human), UniProt P50281); assay: hMMP14 390 MMP FRET Substrate I cleavage assay; settings: 60 min at room temperature, read-out: hMMP-14 potency IC50
Description: The basis for the assay is the cleavage of the substrate 390 MMP FRET Substrate I (Anaspec Cat# AS-27076) by human MMP14 (Biomol, Cat#SE-259).
as §3
Finally, the fluorescence is read on the Envision (Perkin Elmer) after an incubation of 60 min at room temperature (Excitation 485 nm, Emission 530).

COc1cc(Cl)cc(C2CCN(C(=O)CC[C@H]3NC(=O)NC3=O)CC2)c1 [Cpd 67, (R)-5-(3-(4-(3-chloro-5-methoxyphenyl)piperidin-1-yl)-3-oxopropyl) imidazolidine-2,4-dione]
IC50 [1]: > 100 nM | IC50 [2]: > 100 nM

COc1cc(OC)cc(C2CCN(C(=O)CC[C@H]3NC(=O)NC3=O)CC2)c1 [Cpd 34, (R)-5-(3-(4-(3,5-dimethoxy-phenyl)piperidin-1-yl)-3-oxopropyl) imidazolidine-2,4-dione]
IC50 [1]: > 100 nM | IC50 [3]: > 100 nM | IC50 ([4]; 5FAM-LAQAVRSSSRK-5TAMRA): > 100 nM | IC50 [5]: 50 to 100 nM

COc1cc(C2CCN(C(=O)CC[C@H]3NC(=O)NC3=O)CC2)cc(F)c1Cl [Cpd 46, (R)-5-(3-(4-(4-chloro-3-fluoro-5-methoxyphenyl)piperidin-1-yl)-3-oxopropyl) imidazolidine-2,4-dione]
IC50 [1]: 50 to 100 nM | IC50 [3]: > 100 nM | IC50 ([4]; 5FAM-LAQAVRSSSRK-5TAMRA): > 100 nM | IC50 [5]: 0.001 to 25 nM

COc1cc(Cl)cc(C2CCN(C(=O)CC[C@@]3(C)NC(=O)NC3=O)CC2)c1 [Cpd 66, (R)-5-(3-(4-(3-chloro-5-methoxyphenyl)piperidin-1-yl)-3-oxopropyl)-5-methyl-imidazolidine-2,4-dione]
IC50 [1]: > 100 nM | IC50 ([4]; 5FAM-[…]-5TAMRA): 25 to 50 nM | IC50 [5]: 0.001 to 25 nM | IC50 [2]: > 100 nM

COc1cc(F)cc(C2CCN(C(=O)CCC3(C)NC(=O)NC3=O)CC2)c1 (stereo not drawn) [Cpd 50, 5-(3-(4-(3-fluoro-5-methoxyphenyl)piperidin-1-yl)-3-oxopropyl)-5-methyl-imidazolidine-2,4-dione]
IC50 [1]: > 100 nM | IC50 [3]: > 100 nM | IC50 ([4]; 5FAM-LAQAVRSSSRK-5TAMRA): > 100 nM | IC50 [5]: 50 to 100 nM

Cc1ccccc1C1CCN(C(=O)CC[C@H]2NC(=O)NC2=O)CC1 [Cpd 58, (R)-5-(3-oxo-3-(4-o-tolylpiperidin-1-yl)propyl) imidazolidine-2,4-dione]
IC50 [1]: > 100 nM | IC50 [3]: > 100 nM | IC50 ([4]; 5FAM-LAQAVRSSSRK-5TAMRA): > 100 nM | IC50 [5]: > 100 nM

COc1cc(C2CCN(C(=O)CCC3(C)NC(=O)NC3=O)CC2)cc(F)c1Cl (stereo not drawn) [Cpd 47, 5-(3-(4-(4-chloro-3-fluoro-5-methoxyphenyl)piperidin-1-yl)-3-oxopropyl)-5-methyl-imidazolidine-2,4-dione]
IC50 [3]: > 100 nM | IC50 ([4]; 5FAM-LAQAVRSSSRK-5TAMRA): > 100 nM | IC50 [5]: 0.001 to 25 nM

COc1cc(C2CCN(C(=O)CCC3(C)NC(=O)NC3=O)CC2)ccc1Cl (stereo not drawn) [Cpd 36, 5-(3-(4-(4-chloro-3-methoxyl-phenyl)piperidin-1-yl)-3-oxopropyl)-5-methyl-imidazolidine-2,4-dione]
IC50 [3]: > 100 nM | IC50 ([4]; 5FAM-LAQAVRSSSRK-5TAMRA): > 100 nM | IC50 [5]: 0.001 to 25 nM

Cc1c(Cl)cc(Cl)cc1C1CCN(C(=O)CCC2(C)NC(=O)NC2=O)CC1 (stereo not drawn) [Cpd 49, 5-(3-(4-(3,5-dichloro-2-methylphenyl)piperidin-1-yl)-3-oxopropyl)-5-methyl-imidazolidine-2,4-dione]
IC50 [1]: > 100 nM | IC50 [3]: > 100 nM | IC50 ([4]; 5FAM-LAQAVRSSSRK-5TAMRA): > 100 nM | IC50 [5]: 25 to 50 nM

CC1(CCC(=O)N2CCC(c3ccc(Cl)c(F)c3)CC2)NC(=O)NC1=O (stereo not drawn) [Cpd 54, 5-(3-(4-(4-chloro-3-fluorophenyl)piperidin-1-yl)-3-oxopropyl)-5-methyl-imidazolidine-2,4-dione]
IC50 [1]: > 100 nM | IC50 [3]: > 100 nM | IC50 ([4]; 5FAM-LAQAVRSSSRK-5TAMRA): > 100 nM | IC50 [5]: 50 to 100 nM | IC50 [6]: > 100 nM

COc1ccc(Cl)cc1C1CCN(C(=O)CCC2(C)NC(=O)NC2=O)CC1 (stereo not drawn) [Cpd 41, 5-(3-(4-(5-chloro-2-methoxy-phenyl)piperidin-1-yl)-3-oxopropyl)-5-methyl-imidazolidine-2,4-dione]
IC50 [1]: > 100 nM | IC50 [3]: > 100 nM

COc1cc(C2CCN(C(=O)CC[C@H]3NC(=O)NC3=O)CC2)cc(F)c1F [Cpd 43, (R)-5-(3-(4-(3,4-difluoro-5-methoxy-phenyl)piperidin-1-yl)-3-oxopropyl) imidazolidine-2,4-dione]
IC50 [1]: > 100 nM | IC50 [3]: > 100 nM | IC50 ([4]; 5FAM-LAQAVRSSSRK-5TAMRA): > 100 nM | IC50 [5]: 25 to 50 nM

COc1cc(C2CCN(C(=O)CC[C@H]3NC(=O)NC3=O)CC2)c(C)cc1Cl [Cpd 33, (R)-5-(3-(4-(4-chloro-5-methoxy-2-methylphenyl)piperidin-1-yl)-3-oxopropyl) imidazolidine-2,4-dione]
IC50 [1]: > 100 nM | IC50 [3]: > 100 nM | IC50 ([4]; 5FAM-LAQAVRSSSRK-5TAMRA): > 100 nM | IC50 [5]: 25 to 50 nM

COc1cc(C2CCN(C(=O)CCC3(C)NC(=O)NC3=O)CC2)cc(F)c1F (stereo not drawn) [Cpd 45, 5-(3-(4-(3,4-difluoro-5-methoxyphenyl)piperidin-1-yl)-3-oxopropyl)-5-methyl-imidazolidine-2,4-dione]
IC50 [1]: > 100 nM | IC50 [3]: > 100 nM | IC50 ([4]; 5FAM-LAQAVRSSSRK-5TAMRA): > 100 nM | IC50 [5]: 0.001 to 25 nM

COc1cc(OC)cc(C2CCN(C(=O)CCC3(C)NC(=O)NC3=O)CC2)c1 (stereo not drawn) [Cpd 38, 5-(3-(4-(3,5-dimethoxy-phenyl)piperidin-1-yl)-3-oxopropyl)-5-methyl-imidazolidine-2,4-dione]
IC50 [1]: > 100 nM | IC50 [3]: > 100 nM | IC50 ([4]; 5FAM-LAQAVRSSSRK-5TAMRA): > 100 nM | IC50 [5]: 25 to 50 nM

O=C1NC(=O)[C@@H](CCC(=O)N2CCC(c3ccc(Cl)c(F)c3)CC2)N1 [Cpd 51, (R)-5-(3-(4-(4-chloro-3-fluorophenyl)piperidin-1-yl)-3-oxopropyl) imidazolidine-2,4-dione]
IC50 [1]: > 100 nM | IC50 [3]: > 100 nM | IC50 ([4]; 5FAM-LAQAVRSSSRK-5TAMRA): > 100 nM | IC50 [5]: 50 to 100 nM | IC50 [6]: > 100 nM

COc1cc(Cl)ccc1C1CCN(C(=O)CCC2(C)NC(=O)NC2=O)CC1 (stereo not drawn) [Cpd 44, 5-(3-(4-(4-chloro-2-methoxyphenyl)piperidin-1-yl)-3-oxopropyl)-5-methyl-imidazolidine-2,4-dione]
IC50 [1]: > 100 nM | IC50 [3]: > 100 nM | IC50 ([4]; 5FAM-LAQAVRSSSRK-5TAMRA): > 100 nM | IC50 [5]: 0.001 to 25 nM | IC50 [6]: > 100 nM

COc1cc(C2CCN(C(=O)CC[C@H]3NC(=O)NC3=O)CC2)ccc1Cl [Cpd 32, (R)-5-(3-(4-(4-chloro-3-methoxyphenyl)piperidin-1-yl)-3-oxopropyl) imidazolidine-2,4-dione]
IC50 [1]: > 100 nM | IC50 [3]: > 100 nM | IC50 ([4]; 5FAM-LAQAVRSSSRK-5TAMRA): > 100 nM | IC50 [5]: 25 to 50 nM

Cc1c(Cl)cc(Cl)cc1C1CCN(C(=O)CC[C@H]2NC(=O)NC2=O)CC1 [Cpd 48, (R)-5-(3-(4-(3,5-dichloro-2-methylphenyl)piperidin-1-yl)-3-oxopropyl) imidazolidine-2,4-dione]
IC50 [1]: > 100 nM | IC50 [3]: > 100 nM | IC50 ([4]; 5FAM-LAQAVRSSSRK-5TAMRA): > 100 nM | IC50 [5]: 50 to 100 nM

Cc1ccccc1C1CCN(C(=O)CCC2(C)NC(=O)NC2=O)CC1 (stereo not drawn) [Cpd 57, 5-methyl-5-(3-oxo-3-(4-o-tolylpiperidin-1-yl)propyl) imidazolidine-2,4-dione]
IC50 [1]: > 100 nM | IC50 [3]: > 100 nM | IC50 ([4]; 5FAM-LAQAVRSSSRK-5TAMRA): > 100 nM | IC50 [5]: > 100 nM

COc1cc(Cl)ccc1C1CCN(C(=O)CC[C@H]2NC(=O)NC2=O)CC1 [Cpd 42, (R)-5-(3-(4-(4-chloro-2-methoxy-phenyl)piperidin-1-yl)-3-oxopropyl) imidazolidine-2,4-dione]
IC50 [1]: > 100 nM | IC50 [3]: > 100 nM | IC50 ([4]; 5FAM-LAQAVRSSSRK-5TAMRA): > 100 nM | IC50 [5]: 25 to 50 nM | IC50 [6]: > 100 nM

COc1cc(C2CCN(C(=O)CCC3(C)NC(=O)NC3=O)CC2)ccc1F (stereo not drawn) [Cpd 55, 5-(3-(4-(4-fluoro-3-methoxyphenyl)piperidin-1-yl)-3-oxopropyl)-5-methyl-imidazolidine-2,4-dione]
IC50 [1]: > 100 nM | IC50 [3]: > 100 nM | IC50 ([4]; 5FAM-LAQAVRSSSRK-5TAMRA): > 100 nM | IC50 [5]: 50 to 100 nM | IC50 [6]: > 100 nM
